Where two headings read alike, the source gives them in different places.
Assays:
[1] = test system: transgenic event 3560.4.3.5 soybean; test: Greenhouse herbicide tolerance of T0 and T1 plants, visual rating 10 days after spray; type: in vivo, Glycine max
From the text: Selected events were advanced at the T1 generation for herbicide tolerance confirmation in greenhouses. Plants were sprayed at the V3 growth stage with either 1.68 kg ae ha^−1 glyphosate, 60 g ai ha^−1 thifensulfuron methyl(methyl 3-[[[[(4-methoxy-6-methyl-1,3,5-triazin-2-yl)amino]carbonyl]amino]sulfonyl]-2-thiophenecarboxylate), or a sequential […] […] […] Since the T1 events were segregating, only the non-susceptible plants were scored, and an average rating of tolerant plants within each event was calculated.
(§1) T0 3560.4.3.5 soybean were evaluated for glyphosate tolerance.
The 3560.4.3.5 event was advanced to the T1 generation in a greenhouse to confirm herbicide tolerance. The 3560.4.3.5 event had tolerance after application of 1.68 kg ae ha^−1 glyphosate, after application of 60.0 g ai ha^−1 thifensulfuron methyl, and after a sequential application of 70 g ai ha^−1 thifensulfuronmethyl at V3, […]

3560.4.3.5 soybean [2] = test: Field glyphosate tolerance trials, T3 and T4 plants, visual rating; type: in vivo, Glycine max
Method: (§2) The 3560.4.3.5 soybean event was evaluatead for glyphosate tolerance. […] Plots were evaluated for crop response at 7 and 14 days after treatment (DAT), and rated using a 1-9 score. Crop response data were analyzed using the general linear model (GLM) and mixed model analysis of variance (ANOVA) procedures of SAS. (The SAS System is a registered trademark of SAS Institute, Inc., Cary, N.C., USA)
Selected T4 lines were tested for glyphosate tolerance. This experiment was a RCB design in a split plot arrangement with two replications of individual 1.2 m rows (76.2 cm row spacing). At the V3 growth stage, 6.72 kg ae ha^−1 glyphosate was applied to one block, while another was unsprayed for use as a control. The third block received a sequential application of 6.72 kg ae ha^−1 glyphosate at V3 followed by 6.72 kg ae ha^−1 glyphosate at R1. Plots were evaluated for crop response at 7 DAT and 14 DAT, and assigned a visual response score from 0% to 100% response, where 0%=no response observed to 100%=plot completely dead.
(§3) The T3 plants from the 3560.4.3.5 plants were sprayed in a glyphosate herbicide tolerance field trial. […] The untransformed control line was susceptible to any glyphosate application and was consistently rated as a 1. 3560.4.3.5 soybean T4 plants were advanced for additional glyphosate tolerance testing.

[3] = test system: untransformed parental line; test: Greenhouse glyphosate spray of the control line, visual rating; type: in vivo, Glycine max; conditions: either glyphosate application rate of the T0 test; 1 to 9 scale, 1 = dead plant
Method: Plants were rated using a 1 to 9 scale ten days after treatment (DAT), where 1=dead plant to 9=no observed spray response.
as §1

3560.4.3.5 soybean [4] = type: in vivo, Glycine max; conditions: glyphosate 1.68 kg ae ha^−1, ALS inhibitors 5.8 + 4.4 g ai ha^−1
Method: The second set of tolerance experiments were designed to measure yield potential of 3560.4.3.5 soybean after application of common field use rates of glyphosate and/or ALS inhibitor herbicides. […] One experiment was grown at field A and two experiments were grown at field B and C (which were separated by planting date and physical distance of field locations.) In addition, the two fields had different environmental influence; one field experienced drought stress through the spring and early summer, the other was well irrigated throughout the growing season. Treatments were randomized within each of the replications and sprayed at the VC, V2, R2, or R5 growth stages. Treatments consisted of 1.68 kg ai ha^−1 glyphosate, 5.8 g ai ha^−1 chlorimuron ethyl+4.4 g ai ha^−1 thifensulfuron methyl, and 1.68 kg ai ha^−1 glyphosate+5.8 g ai ha^−1 chlorimuron ethyl+4.4 g ai ha^−1 thifensulfuron methyl. […] Plots were harvested and yield was calculated for each plot.
The second set of experiments conducted with event 3560.4.3.5 were designed to measure yield potential after application of different herbicides at field use rates that would be commonly utilized for soybean production. Across the glyphosate, ALS inhibitor, and glyphosate plus ALS inhibitor treatments there was minimal (10% or less) to essentially no response at 7, 14, and 28 DAT (Table 20). When yield data was collected, there were no significant yield differences detected for any of the herbicide treatments applied at different the growth stages (Table 20). In addition, the replications that received herbicide treatments were not statistically different from the unsprayed control replications for yield (Table 20). Based upon multiple year herbicide tolerance trials, it can be concluded that event 3560.4.3.5 had excellent tolerance to field use rates of glyphosate, ALS inhibitor, and glyphosate plus ALS inhibitor herbicides. In addition, yield potential was not affected when event 3560.4.3.5 was sprayed with glyphosate, ALS inhibitor, and glyphosate plus ALS inhibitor chemistries at different vegetative and reproductive growth stages.

[5] = test system: untransformed control line; test: Field glyphosate tolerance trial, control line; type: in vivo, Glycine max; conditions: any glyphosate application (3.36, 6.72 or 13.44 kg ae ha-1), 1 to 9 scale
Method: as §2, §3

3560.4.3.5 soybean [6] = test: Tolerance to glyphosate tank mixes with other pesticides at V2 or R2, crop response rating; conditions: glyphosate 3.36 kg ae ha-1, chlorpyrifos 560.4, bentazon 1120.9, imazethapyr 141.3, fomesafen 263.4, tribenuron-methyl 17.5, thifensulfuron-methyl 17.5 g ai ha-1
Method: The first experiments were grown in an RCB design of three replications of paired 3.7 m rows (76.2 cm row spacing), blocked by replication with randomized spray treatments within each replication. […] Visual response ratings (0% to 100%) were assigned to each plot at 7 DAT, 14 DAT, and 28 DAT. Crop response data were analyzed using the GLM and mixed model ANOVA procedures of SAS.

3560.4.3.5 soybean [7] = test: ALS inhibitor herbicide tolerance field trials, crop response rating; parameters: species or system Glycine max; conditions: in vivo
From the text: ALS inhibitor herbicide tolerance of the gm-hra gene was compared to sulfonylurea tolerant soybeans (STS®) by growing T4 plants of event 3560.4.3.5 and a STS® cultivar. […] Spray treatments were applied at the V3 growth stage and consisted of one of the following: an unsprayed control, 8.8 g ai ha^−1 rimsulfuron (N-[[(4,6-dimethoxy-2-pyrimidinyl)amino]carbonyl]-3-(ethylsulfonyl)-2-pyridinesulfonamide), 8.8 g ai ha^−1 tribenuron methyl (methyl 2-[[[[(4-methoxy-6-methyl-1,3,5-triazin-2-yl)methylamino]carbonyl]amino]sulfonyl]benzoate), or 30.0 g ai ha^−1 chlorimuron ethyl (ethyl 2-[[[[(4-chloro-6-methoxypyrimidin-2-yl)amino]carbonyl]amino]sulfonyl]benzoate)+9.67 g ai ha^−1 thifensulfuron methyl. […] Plots were evaluated for crop response at 7 DAT and 14 DAT, and assigned a visual response score from 0% to 100% response. Crop response data were analyzed using the mixed model ANOVA procedure of SAS.
ALS inhibitor herbicide tolerance trials were completed at two separate locations. Plants from the T5 generation of event 3560.4.3.5 and a STS® cultivar were grown in a RCB design in a split plot arrangement with three replications of paired 2.4 m rows (76.2 cm row spacing). […] Crop response data were analyzed using the mixed model ANOVA procedure of SAS. […]

[8] = test system: seedlings that lacked the event; test: Chlorsulfuron herbicide seedling test on germination paper; type: in vivo, Glycine max; conditions: germination paper saturated with 20 ml/l of a 66.7 mg/l chlorsulfuron stock, pH 7.5; observed 10 days after initial treatment
[9] = test system: seedlings that possessed the 3560.4.3.5 event; test: as above; type: in vivo, Glycine max; conditions: germination paper saturated with 20 ml/l of a 66.7 mg/l chlorsulfuron stock, pH 7.5; observed 10 days after initial treatment

O=C(O)CNCP(=O)(O)O [Glyphosate]
average visual response rating ([1]; T0 plants, glyphosate 1.68 kg ae ha-1 + NIS + AMS, 10 days after application, greenhouse, scale 0 = dead plant to 9 = no response detected): 7.0 | average visual response rating ([1]; T0 plants, glyphosate 3.36 kg ae ha-1 + NIS + AMS, 10 days after application, greenhouse, scale 0 = dead plant to 9 = no response detected): 6.5 | average visual response rating, second score of sequential application ([1]; T1 tolerant plants, 70 g ai ha-1 thifensulfuron methyl at V3 followed by glyphosate 1.68 kg ae ha-1 at V6, 10 days after the V6 glyphosate application, scale to 9 = no response): 8.0 | average visual response rating ([1]; T1 tolerant plants, glyphosate 1.68 kg ae ha-1 + NIS + AMS at V3, 10 days after application, scale to 9 = no response): 7.0 | LSMean visual rating (3560.4.3.5 soybean [2]; T3 plants, glyphosate 3.36 kg ae ha-1, 7 DAT, 1 = completely dead plot to 9 = no response): 8.0 | LSMean visual rating (3560.4.3.5 soybean [2]; T3 plants, glyphosate 6.72 kg ae ha-1, 7 DAT, 1 = completely dead plot to 9 = no response): 6.7 | LSMean visual rating (3560.4.3.5 soybean [2]; T3 plants, glyphosate 13.44 kg ae ha-1, 7 DAT, 1 = completely dead plot to 9 = no response): 5.7 | LSMean visual rating (3560.4.3.5 soybean [2]; T4 plants, glyphosate 6.72 kg ae ha-1 at V3, 7 DAT, 1 to 9 scale): 6.8 | LSMean visual rating (3560.4.3.5 soybean [2]; T4 plants, glyphosate 6.72 kg ae ha-1 at V3, 14 DAT, 1 to 9 scale): 7.8 | LSMean visual rating (3560.4.3.5 soybean [2]; T4 plants, sequential glyphosate 6.72 kg ae ha-1 at V3 then 6.72 at R1, 7 DAT after the R1 application, 1 to 9 scale): 7.8 | LSMean visual rating (3560.4.3.5 soybean [2]; T4 plants, sequential glyphosate 6.72 kg ae ha-1 at V3 then 6.72 at R1, 14 DAT after the R1 application, 1 to 9 scale): 7.7 | visual rating [3]: 1 | crop response rating 7 DAT (LSMean) (3560.4.3.5 soybean [4]; Application Stage R2): 2.0% | crop response rating 14 DAT (LSMean) (3560.4.3.5 soybean [4]; Application Stage R2): 0.6% | crop response rating 28 DAT (LSMean) (3560.4.3.5 soybean [4]; Application Stage R2): 0.0% | crop response rating 7 DAT (LSMean) (3560.4.3.5 soybean [4]; Application Stage R5): 0.3% | crop response rating 14 DAT (LSMean) (3560.4.3.5 soybean [4]; Application Stage R5): 0.3% | crop response rating 28 DAT (LSMean) (3560.4.3.5 soybean [4]; Application Stage R5): 0.0% | crop response rating 7 DAT (LSMean) (3560.4.3.5 soybean [4]; Application Stage V2): 5.3% | crop response rating 14 DAT (LSMean) (3560.4.3.5 soybean [4]; Application Stage V2): 2.8% | crop response rating 28 DAT (LSMean) (3560.4.3.5 soybean [4]; Application Stage V2): 0.6% | crop response rating 7 DAT (LSMean) (3560.4.3.5 soybean [4]; Application Stage VC): 1.6% | crop response rating 14 DAT (LSMean) (3560.4.3.5 soybean [4]; Application Stage VC): 0.8% | crop response rating 28 DAT (LSMean) (3560.4.3.5 soybean [4]; Application Stage VC): 0.6% | visual rating [5]: 1 | LSMean crop response rating, 7 DAT Average (3560.4.3.5 soybean [6]; applied at R2): 1.7% | LSMean crop response rating, 14 DAT Average (3560.4.3.5 soybean [6]; applied at R2): 0.6% | LSMean crop response rating, 28 DAT Average (3560.4.3.5 soybean [6]; applied at R2): 0.0% | LSMean crop response rating, 14 DAT Average (3560.4.3.5 soybean [6]; applied at V2): 3.3% | LSMean crop response rating, 28 DAT Average (3560.4.3.5 soybean [6]; applied at V2): 0.6% | LSMean crop response rating, 7 DAT Average (3560.4.3.5 soybean [6]; applied at V2, + NIS + AMS, 0% = no response, 100% = plot completely dead): 3.9%

COC(=O)c1ccccc1S(=O)(=O)NC(=O)Nc1nc(C)nc(OC)n1 [Metsulfuron methyl, methyl 2-[[[[(4-methoxy-6-methyl-1,3,5-triazin-2-yl)amino]carbonyl]amino]sulfonyl]benzoate]
crop response of 3560.4.3.5 soybean compared to STS, in words (3560.4.3.5 soybean [7]): significantly lower crop response compared to STS®

CCS(=O)(=O)c1cccnc1S(=O)(=O)NC(=O)Nc1nc(OC)cc(OC)n1 [Rimsulfuron, N-[[(4,6-dimethoxy-2-pyrimidinyl)amino]carbonyl]-3-(ethylsulfonyl)-2-pyridinesulfonamide]
crop response of 3560.4.3.5 soybean compared to STS, in words (3560.4.3.5 soybean [7]): significantly lower crop response compared to STS®

COC(=O)c1sccc1S(=O)(=O)NC(=O)Nc1nc(C)nc(OC)n1 [Thifensulfuron methyl, methyl 3-[[[[(4-methoxy-6-methyl-1,3,5-triazin-2-yl)amino]carbonyl]amino]sulfonyl]-2-thiophenecarboxylate]
average visual response rating ([1]; T1 tolerant plants, thifensulfuron methyl 60.0 g ai ha-1 + NIS + AMS at V3, 10 days after application, scale to 9 = no response): 7.0 | average visual response rating, first score of sequential application ([1]; T1 tolerant plants, thifensulfuron methyl 70 g ai ha-1 + NIS + AMS at V3, 10 days after the V3 application, scale to 9 = no response): 8.0

COc1nc(C)nc(NC(=O)NS(=O)(=O)c2ccccc2Cl)n1 [chlorsulfuron, 2-chloro-N-[[(4-methoxy-6-methyl-1,3,5-triazin-2-yl)amino]-carbonyl]benzenesulfonamide]
seedling response in chlorsulfuron solution [8]: created hooked unifoliolate leaves that did not expand and develop any further | seedling response in chlorsulfuron solution [9]: germinated and grew normally

From patent US8324457B2, “Soybean event 3560.4.3.5 and compositions and methods for the identification and/or detection thereof” (Pioneer Hi-Bred International, Inc., priority 2006, dated 2012)
